Structures are written as SMILES. pEC50: −log10 of the molar value. Numbered stars: 1 amine (or outer) side, 2 acyl side, 3 side chain; on linkers, the order of the positions; unused ones are H or OH. Bridge positions count the residues as written; N and C are the ends. Square brackets hold non-standard residues; d marks the D form. Peptide text beside a SMILES is read from it. X2 = NC(N)=NCC[C@@H]1C[C@@H](C(=O)[*:2])N([*:1])C1; X1 = NC(N)=NCC[C@H]1C[C@@H](C(=O)[*:2])N([*:1])C1

Test [1] is described as follows: Effective concentration required for production of cGMP in Chinese hamster ovary cells expressing natriuretic peptide receptor A (NPR-A). It counts as functional, cell-based.
A short description of test [2]: Relative biological activity was measured as EC50 analogue/ EC50 miniANP. It counts as functional.

With `CC[C@H](C)[C@@H]1NC(=O)[C@H](CCCN=C(N)N)NC(=O)[C@H](CC(=O)O)NC(=O)[C@H](CCSC)NC(=O)[C@@H]2C[C@@H](CCN=C(N)N)CN2C(=O)CNC(=O)CNC(=O)[C@H](Cc2ccccc2)NC(=O)[C@H](Cc2c[nH]cn2)NC(=O)[C@@H](NC(=O)[C@@H](N)CCSC)CSSC[C@@H](C(=O)N[C@@H](Cc2ccc(O)cc2)C(=O)N[C@@H](CCCN=C(N)N)C(N)=O)NC(=O)[C@H](CO)NC1=O` (H-MCHFGG[X2]MDRISCYR-NH2; disulfide 2-13), in test [1], the pEC50 (as a rule, the negative decadic logarithm of the EC50, by convention in mol/L) was 8.89.
`CC[C@H](C)[C@@H]1NC(=O)[C@@H](CCCN=C(N)N)NC(=O)[C@H](CC(=O)O)NC(=O)[C@@H](CCSC)NC(=O)[C@H](C)NC(=O)CNC(=O)CNC(=O)[C@@H](Cc2ccccc2)NC(=O)[C@H](Cc2c[nH]cn2)NC(=O)[C@@H](NC(=O)[C@@H](N)CCSC)CSSC[C@H](C(=O)N[C@@H](Cc2ccc(O)cc2)C(=O)N[C@@H](CCCN=C(N)N)C(N)=O)NC(=O)[C@@H](CO)NC1=O`: the Ratio in test [2] was 44.3.
In test [1], `CC[C@H](C)[C@@H]1NC(=O)[C@H](CCCN=C(N)N)NC(=O)[C@H](CC(=O)O)NC(=O)[C@H](CCSC)NC(=O)[C@@H]2C[C@H](CCN=C(N)N)CN2C(=O)CNC(=O)CNC(=O)[C@H](Cc2ccccc2)NC(=O)[C@H](Cc2c[nH]cn2)NC(=O)[C@@H](NC(=O)[C@@H](N)CCSC)CSSC[C@@H](C(=O)N[C@@H](Cc2ccc(O)cc2)C(=O)N[C@@H](CCCN=C(N)N)C(N)=O)NC(=O)[C@H](CO)NC1=O` (H-MCHFGG[X1]MDRISCYR-NH2; disulfide 2-13) gave a pEC50 of 8.34.
`CC[C@H](C)[C@@H]1NC(=O)[C@@H](CCCN=C(N)N)NC(=O)[C@H](CC(=O)O)NC(=O)[C@@H](CCSC)NC(=O)[C@@H]2CCCN2C(=O)CNC(=O)CNC(=O)[C@@H](Cc2ccccc2)NC(=O)[C@H](Cc2c[nH]cn2)NC(=O)[C@@H](NC(=O)[C@@H](N)CCSC)CSSC[C@H](C(=O)N[C@@H](Cc2ccc(O)cc2)C(=O)N[C@@H](CCCN=C(N)N)C(N)=O)NC(=O)[C@@H](CO)NC1=O`: the Ratio in test [2] came out at 18.7.
In the case of `CC[C@H](C)[C@@H]1NC(=O)[C@@H](CCCN=C(N)N)NC(=O)[C@H](CC(=O)O)NC(=O)[C@@H](CCSC)NC(=O)[C@H](CCCN=C(N)N)NC(=O)CNC(=O)CNC(=O)[C@@H](Cc2ccccc2)NC(=O)[C@H](Cc2c[nH]cn2)NC(=O)[C@@H](NC(=O)[C@@H](N)CCSC)CSSC[C@H](C(=O)N[C@@H](Cc2ccc(O)cc2)C(=O)N[C@@H](CCCN=C(N)N)C(N)=O)NC(=O)[C@@H](CO)NC1=O` [MiniANP], the Ratio in test [2] is 1.
`CC[C@H](C)[C@@H]1NC(=O)[C@H](CCCN=C(N)N)NC(=O)[C@H](CC(=O)O)NC(=O)[C@H](CCSC)NC(=O)[C@@H]2CCCN2C(=O)CNC(=O)CNC(=O)[C@H](Cc2ccccc2)NC(=O)[C@H](Cc2c[nH]cn2)NC(=O)[C@@H](NC(=O)[C@@H](N)CCSC)CSSC[C@@H](C(=O)N[C@@H](Cc2ccc(O)cc2)C(=O)N[C@@H](CCCN=C(N)N)C(N)=O)NC(=O)[C@H](CO)NC1=O` had a pEC50 in test [1] of 7.24.
The same measure, in the same setting: then `CC[C@H](C)[C@@H]1NC(=O)[C@H](CCCN=C(N)N)NC(=O)[C@H](CC(=O)O)NC(=O)[C@H](CCSC)NC(=O)[C@H](C)NC(=O)CNC(=O)CNC(=O)[C@H](Cc2ccccc2)NC(=O)[C@H](Cc2c[nH]cn2)NC(=O)[C@@H](NC(=O)[C@@H](N)CCSC)CSSC[C@@H](C(=O)N[C@@H](Cc2ccc(O)cc2)C(=O)N[C@@H](CCCN=C(N)N)C(N)=O)NC(=O)[C@H](CO)NC1=O`, with 6.86.

Source of the values: ChEMBL document CHEMBL1148388, “Restriction of a peptide turn conformation and conformational analysis of guanidino group using arginine-proline fused amino acids: application to mini atrial natriuretic peptide on binding to the receptor” (J Med Chem, 2004).
